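GI50 = concentration required for 50% inhibition of growth. TGI: total growth inhibition.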
Columns and labels:
Experiment in all cases: growth of human tumour cells (NCI), 384-well format
A498 renal = system: A498 renal
SN12C renal = system: SN12C renal
HOP-62 NSCLC = system: HOP-62 NSCLC
HL-60(TB) leukemia = system: HL-60(TB) leukemia
SK-MEL-28 melanoma = system: SK-MEL-28 melanoma
NCI-H522 lung = system: NCI-H522 lung
NCI-H460 NSCLC = system: NCI-H460 NSCLC
MDA-MB-435 melanoma = system: MDA-MB-435 melanoma
M14 melanoma = system: M14 melanoma
786-0 renal = system: 786-0 renal
HCT-15 colon = system: HCT-15 colon
COLO 205 colon = system: COLO 205 colon
UACC-62 melanoma = system: UACC-62 melanoma
A549 NSCLC = system: A549 NSCLC
RXF 393 renal = system: RXF 393 renal
SW-620 colon = system: SW-620 colon
SNB-75 CNS = system: SNB-75 CNS
IGROV1 ovarian = system: IGROV1 ovarian
OVCAR-3 ovarian = system: OVCAR-3 ovarian
UACC-257 melanoma = system: UACC-257 melanoma
HS 578T breast = system: HS 578T breast
CAKI-1 renal = system: CAKI-1 renal
MDA-MB-468 breast = system: MDA-MB-468 breast
SNB-19 CNS = system: SNB-19 CNS
NCI-H23 lung = system: NCI-H23 lung
SK-MEL-5 melanoma = system: SK-MEL-5 melanoma
SF-539 CNS = system: SF-539 CNS
ACHN renal = system: ACHN renal
BT-549 breast = system: BT-549 breast
MOLT-4 leukemia = system: MOLT-4 leukemia
EKVX NSCLC = system: EKVX NSCLC
T-47D breast = system: T-47D breast
TK-10 renal = system: TK-10 renal
OVCAR-8 ovarian = system: OVCAR-8 ovarian
SK-OV-3 ovarian = system: SK-OV-3 ovarian
NCI-H322M lung = system: NCI-H322M lung
PC-3 prostate = system: PC-3 prostate
SF-268 CNS = system: SF-268 CNS
UO-31 renal = system: UO-31 renal
HT29 colon = system: HT29 colon
KM12 colon = system: KM12 colon
CCRF-CEM leukemia = system: CCRF-CEM leukemia
DU-145 prostate = system: DU-145 prostate
K-562 leukemia = system: K-562 leukemia
NCI/ADR-RES ovarian = system: NCI/ADR-RES ovarian
MALME-3M melanoma = system: MALME-3M melanoma
SF-295 CNS = system: SF-295 CNS
OVCAR-4 ovarian = system: OVCAR-4 ovarian
SR leukemia = system: SR leukemia
RPMI-8226 leukemia = system: RPMI-8226 leukemia
NCI-H226 lung = system: NCI-H226 lung
U251 glioblastoma = system: U251 glioblastoma
HCT-116 colon = system: HCT-116 colon
HOP-92 NSCLC = system: HOP-92 NSCLC
LOX IMVI melanoma = system: LOX IMVI melanoma
MDA-MB-231 breast = system: MDA-MB-231 breast

## COc1cc(-c2cnn(C)c2)ccc1Nc1ncc2ccnc(N[C@@H](C)C(C)(C)C)c2n1
A498 renal
  GI50: 0.505 µM
  TGI: > 100 µM
SN12C renal
  GI50: > 100 µM
  TGI: > 100 µM
HOP-62 NSCLC
  GI50: 0.498 µM
  TGI: > 100 µM
HL-60(TB) leukemia
  GI50: 0.11 µM
  TGI: 0.318 µM
SK-MEL-28 melanoma
  GI50: > 100 µM
  TGI: > 100 µM
NCI-H522 lung
  GI50: 0.577 µM
  TGI: > 100 µM
NCI-H460 NSCLC
  GI50: 0.0673 µM
  TGI: > 100 µM
MDA-MB-435 melanoma
  GI50: > 100 µM
  TGI: > 100 µM
M14 melanoma
  GI50: 10.9 µM
  TGI: > 100 µM
786-0 renal
  GI50: 0.474 µM
  TGI: > 100 µM
HCT-15 colon
  GI50: 0.05 µM
  TGI: > 100 µM
COLO 205 colon
  GI50: 0.0809 µM
  TGI: > 100 µM
UACC-62 melanoma
  GI50: 7.46 µM
  TGI: 88.1 µM
A549 NSCLC
  GI50: 0.115 µM
  TGI: > 100 µM
RXF 393 renal
  GI50: 0.29 µM
  TGI: 13 µM
SW-620 colon
  GI50: 0.112 µM
  TGI: > 100 µM
SNB-75 CNS
  GI50: 1.31 µM
  TGI: > 100 µM
IGROV1 ovarian
  GI50: > 100 µM
  TGI: > 100 µM
OVCAR-3 ovarian
  GI50: > 100 µM
  TGI: > 100 µM
UACC-257 melanoma
  GI50: > 100 µM
  TGI: > 100 µM
HS 578T breast
  GI50: 1.7 µM
  TGI: 45 µM
CAKI-1 renal
  GI50: > 100 µM
  TGI: > 100 µM
MDA-MB-468 breast
  GI50: 0.486 µM
  TGI: > 100 µM
SNB-19 CNS
  GI50: 60.3 µM
  TGI: > 100 µM
NCI-H23 lung
  GI50: 2.41 µM
  TGI: > 100 µM
SK-MEL-5 melanoma
  GI50: > 100 µM
  TGI: > 100 µM
SF-539 CNS
  GI50: 0.476 µM
  TGI: > 100 µM
ACHN renal
  GI50: 3.26 µM
  TGI: > 100 µM
BT-549 breast
  GI50: 53.6 µM
  TGI: > 100 µM
MOLT-4 leukemia
  GI50: 0.026 µM
  TGI: 0.0647 µM
EKVX NSCLC
  GI50: > 100 µM
  TGI: > 100 µM
T-47D breast
  GI50: > 100 µM
  TGI: > 100 µM
TK-10 renal
  GI50: 23.2 µM
  TGI: > 100 µM
OVCAR-8 ovarian
  GI50: 0.326 µM
  TGI: > 100 µM
SK-OV-3 ovarian
  GI50: > 100 µM
  TGI: > 100 µM
NCI-H322M lung
  GI50: > 100 µM
  TGI: > 100 µM
PC-3 prostate
  GI50: > 100 µM
  TGI: > 100 µM
SF-268 CNS
  GI50: 2.08 µM
  TGI: > 100 µM
UO-31 renal
  GI50: 14.1 µM
  TGI: > 100 µM
HT29 colon
  GI50: 0.632 µM
  TGI: > 100 µM
KM12 colon
  GI50: 0.0699 µM
  TGI: > 100 µM
CCRF-CEM leukemia
  GI50: 0.0835 µM
  TGI: 0.271 µM
DU-145 prostate
  GI50: 0.376 µM
  TGI: > 100 µM
K-562 leukemia
  GI50: 0.878 µM
  TGI: > 100 µM
NCI/ADR-RES ovarian
  GI50: 0.442 µM
  TGI: > 100 µM
MALME-3M melanoma
  GI50: > 100 µM
  TGI: > 100 µM
SF-295 CNS
  GI50: 3.54 µM
  TGI: > 100 µM
OVCAR-4 ovarian
  GI50: > 100 µM
  TGI: > 100 µM
SR leukemia
  TGI: 0.0523 µM
RPMI-8226 leukemia
  GI50: 0.302 µM
  TGI: > 100 µM
NCI-H226 lung
  GI50: > 100 µM
  TGI: > 100 µM
U251 glioblastoma
  GI50: 2.09 µM
  TGI: > 100 µM
HCT-116 colon
  GI50: 0.0447 µM
  TGI: > 100 µM
HOP-92 NSCLC
  GI50: 27.5 µM
  TGI: > 100 µM
LOX IMVI melanoma
  GI50: 0.0893 µM
  TGI: > 100 µM
MDA-MB-231 breast
  GI50: 3 µM
  TGI: > 100 µM
